Measurements as given in US10670605B2, “Cysteine reactive probes and uses thereof” (The Scripps Research Institute, priority 2015, dated 2020).

Tests used:
Test in all cases: Competitive isoTOP-ABPP in situ (fragment-treated cells)
Assay type in all cases: cell-based
[1] = biological target: cysteines in MDA-MB-231 and Ramos cells (Homo sapiens, UniProt P35658)
[2] = biological target: T1, cysteines in MDA-MB-231 and Ramos cells (Homo sapiens, UniProt Q86YH6)
T1 sequence (Q86YH6 1-399): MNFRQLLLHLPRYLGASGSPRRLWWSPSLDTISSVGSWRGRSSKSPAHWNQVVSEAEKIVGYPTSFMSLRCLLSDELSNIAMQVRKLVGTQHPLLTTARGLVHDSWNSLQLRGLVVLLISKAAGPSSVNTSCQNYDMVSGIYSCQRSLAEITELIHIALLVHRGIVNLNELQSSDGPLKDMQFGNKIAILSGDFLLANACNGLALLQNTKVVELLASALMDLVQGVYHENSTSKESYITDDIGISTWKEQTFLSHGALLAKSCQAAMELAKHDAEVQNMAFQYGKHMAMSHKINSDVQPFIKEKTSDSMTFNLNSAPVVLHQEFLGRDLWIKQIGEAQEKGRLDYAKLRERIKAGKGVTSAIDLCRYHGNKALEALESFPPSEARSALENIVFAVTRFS

[3] = biological target: T2, cysteines in MDA-MB-231 and Ramos cells (Homo sapiens, UniProt Q96F86)
T2 sequence (Q96F86 1-508): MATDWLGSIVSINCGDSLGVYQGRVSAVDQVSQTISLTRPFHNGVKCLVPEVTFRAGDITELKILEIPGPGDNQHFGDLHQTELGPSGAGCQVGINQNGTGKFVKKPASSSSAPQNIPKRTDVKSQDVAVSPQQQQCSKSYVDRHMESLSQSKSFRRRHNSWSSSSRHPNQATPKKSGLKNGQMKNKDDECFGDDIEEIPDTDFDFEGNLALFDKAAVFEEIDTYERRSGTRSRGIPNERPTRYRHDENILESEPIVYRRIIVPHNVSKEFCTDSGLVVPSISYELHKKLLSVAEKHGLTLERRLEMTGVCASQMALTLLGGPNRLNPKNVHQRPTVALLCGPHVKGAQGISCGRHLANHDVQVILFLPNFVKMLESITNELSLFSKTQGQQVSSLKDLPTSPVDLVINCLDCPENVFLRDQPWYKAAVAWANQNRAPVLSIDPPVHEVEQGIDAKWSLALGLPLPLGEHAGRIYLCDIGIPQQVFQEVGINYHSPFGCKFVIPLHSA

[4] = biological target: T3, cysteines in MDA-MB-231 and Ramos cells (Homo sapiens, UniProt Q9Y570)
T3 sequence (Q9Y570 1-386): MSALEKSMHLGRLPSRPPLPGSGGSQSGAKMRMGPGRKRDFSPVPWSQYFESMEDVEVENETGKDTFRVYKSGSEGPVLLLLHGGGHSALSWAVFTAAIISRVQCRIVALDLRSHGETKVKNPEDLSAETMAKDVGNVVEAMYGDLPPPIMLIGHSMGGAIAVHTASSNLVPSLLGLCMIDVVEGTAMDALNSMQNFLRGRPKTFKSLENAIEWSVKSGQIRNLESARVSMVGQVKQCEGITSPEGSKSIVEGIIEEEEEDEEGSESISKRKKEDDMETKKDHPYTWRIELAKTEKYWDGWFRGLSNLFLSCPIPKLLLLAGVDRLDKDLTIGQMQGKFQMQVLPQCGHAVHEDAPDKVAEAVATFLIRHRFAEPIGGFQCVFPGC

[5] = biological target: cysteines in MDA-MB-231 and Ramos cells (Homo sapiens, UniProt Q9Y3D2)
[6] = biological target: cysteines in MDA-MB-231 and Ramos cells (Homo sapiens, UniProt P22061)
[7] = biological target: cysteines in MDA-MB-231 and Ramos cells (Homo sapiens, UniProt Q8NBS9)
[8] = biological target: cysteines in MDA-MB-231 and Ramos cells (Homo sapiens, UniProt Q6XZF7)
[9] = biological target: cysteines in MDA-MB-231 and Ramos cells (Homo sapiens, UniProt P07858)
[10] = biological target: cysteines in MDA-MB-231 and Ramos cells (Homo sapiens, UniProt Q9Y6G9)
[11] = biological target: cysteines in MDA-MB-231 and Ramos cells (Homo sapiens, UniProt Q13630); conditions: 200 μM, insitu, 231
cysteines in MDA-MB-231 and Ramos cells (Homo sapiens, UniProt Q13630), sequence (Q13630 whole entry): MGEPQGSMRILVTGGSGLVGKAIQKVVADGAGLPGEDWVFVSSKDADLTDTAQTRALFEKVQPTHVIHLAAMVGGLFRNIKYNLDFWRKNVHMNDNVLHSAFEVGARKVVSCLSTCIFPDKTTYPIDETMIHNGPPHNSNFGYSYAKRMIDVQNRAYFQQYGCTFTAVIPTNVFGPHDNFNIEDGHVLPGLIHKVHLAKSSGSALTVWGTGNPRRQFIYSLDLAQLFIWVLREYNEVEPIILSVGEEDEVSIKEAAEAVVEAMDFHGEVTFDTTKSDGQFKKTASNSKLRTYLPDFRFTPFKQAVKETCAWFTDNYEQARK

cysteines in MDA-MB-231 and Ramos cells (Homo sapiens, UniProt Q8NBS9), sequence (Q8NBS9 33-432): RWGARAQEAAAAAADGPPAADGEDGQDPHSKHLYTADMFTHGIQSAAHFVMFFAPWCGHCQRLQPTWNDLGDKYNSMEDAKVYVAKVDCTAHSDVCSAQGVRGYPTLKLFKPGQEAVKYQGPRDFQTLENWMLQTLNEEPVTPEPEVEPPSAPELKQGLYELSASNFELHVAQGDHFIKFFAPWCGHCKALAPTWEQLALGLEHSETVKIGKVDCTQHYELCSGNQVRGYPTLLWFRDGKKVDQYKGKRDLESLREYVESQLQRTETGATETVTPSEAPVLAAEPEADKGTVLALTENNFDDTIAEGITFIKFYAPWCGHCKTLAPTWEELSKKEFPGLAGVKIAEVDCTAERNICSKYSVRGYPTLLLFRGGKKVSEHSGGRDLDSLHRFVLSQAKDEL
cysteines in MDA-MB-231 and Ramos cells (Homo sapiens, UniProt P35658), sequence (P35658 whole entry): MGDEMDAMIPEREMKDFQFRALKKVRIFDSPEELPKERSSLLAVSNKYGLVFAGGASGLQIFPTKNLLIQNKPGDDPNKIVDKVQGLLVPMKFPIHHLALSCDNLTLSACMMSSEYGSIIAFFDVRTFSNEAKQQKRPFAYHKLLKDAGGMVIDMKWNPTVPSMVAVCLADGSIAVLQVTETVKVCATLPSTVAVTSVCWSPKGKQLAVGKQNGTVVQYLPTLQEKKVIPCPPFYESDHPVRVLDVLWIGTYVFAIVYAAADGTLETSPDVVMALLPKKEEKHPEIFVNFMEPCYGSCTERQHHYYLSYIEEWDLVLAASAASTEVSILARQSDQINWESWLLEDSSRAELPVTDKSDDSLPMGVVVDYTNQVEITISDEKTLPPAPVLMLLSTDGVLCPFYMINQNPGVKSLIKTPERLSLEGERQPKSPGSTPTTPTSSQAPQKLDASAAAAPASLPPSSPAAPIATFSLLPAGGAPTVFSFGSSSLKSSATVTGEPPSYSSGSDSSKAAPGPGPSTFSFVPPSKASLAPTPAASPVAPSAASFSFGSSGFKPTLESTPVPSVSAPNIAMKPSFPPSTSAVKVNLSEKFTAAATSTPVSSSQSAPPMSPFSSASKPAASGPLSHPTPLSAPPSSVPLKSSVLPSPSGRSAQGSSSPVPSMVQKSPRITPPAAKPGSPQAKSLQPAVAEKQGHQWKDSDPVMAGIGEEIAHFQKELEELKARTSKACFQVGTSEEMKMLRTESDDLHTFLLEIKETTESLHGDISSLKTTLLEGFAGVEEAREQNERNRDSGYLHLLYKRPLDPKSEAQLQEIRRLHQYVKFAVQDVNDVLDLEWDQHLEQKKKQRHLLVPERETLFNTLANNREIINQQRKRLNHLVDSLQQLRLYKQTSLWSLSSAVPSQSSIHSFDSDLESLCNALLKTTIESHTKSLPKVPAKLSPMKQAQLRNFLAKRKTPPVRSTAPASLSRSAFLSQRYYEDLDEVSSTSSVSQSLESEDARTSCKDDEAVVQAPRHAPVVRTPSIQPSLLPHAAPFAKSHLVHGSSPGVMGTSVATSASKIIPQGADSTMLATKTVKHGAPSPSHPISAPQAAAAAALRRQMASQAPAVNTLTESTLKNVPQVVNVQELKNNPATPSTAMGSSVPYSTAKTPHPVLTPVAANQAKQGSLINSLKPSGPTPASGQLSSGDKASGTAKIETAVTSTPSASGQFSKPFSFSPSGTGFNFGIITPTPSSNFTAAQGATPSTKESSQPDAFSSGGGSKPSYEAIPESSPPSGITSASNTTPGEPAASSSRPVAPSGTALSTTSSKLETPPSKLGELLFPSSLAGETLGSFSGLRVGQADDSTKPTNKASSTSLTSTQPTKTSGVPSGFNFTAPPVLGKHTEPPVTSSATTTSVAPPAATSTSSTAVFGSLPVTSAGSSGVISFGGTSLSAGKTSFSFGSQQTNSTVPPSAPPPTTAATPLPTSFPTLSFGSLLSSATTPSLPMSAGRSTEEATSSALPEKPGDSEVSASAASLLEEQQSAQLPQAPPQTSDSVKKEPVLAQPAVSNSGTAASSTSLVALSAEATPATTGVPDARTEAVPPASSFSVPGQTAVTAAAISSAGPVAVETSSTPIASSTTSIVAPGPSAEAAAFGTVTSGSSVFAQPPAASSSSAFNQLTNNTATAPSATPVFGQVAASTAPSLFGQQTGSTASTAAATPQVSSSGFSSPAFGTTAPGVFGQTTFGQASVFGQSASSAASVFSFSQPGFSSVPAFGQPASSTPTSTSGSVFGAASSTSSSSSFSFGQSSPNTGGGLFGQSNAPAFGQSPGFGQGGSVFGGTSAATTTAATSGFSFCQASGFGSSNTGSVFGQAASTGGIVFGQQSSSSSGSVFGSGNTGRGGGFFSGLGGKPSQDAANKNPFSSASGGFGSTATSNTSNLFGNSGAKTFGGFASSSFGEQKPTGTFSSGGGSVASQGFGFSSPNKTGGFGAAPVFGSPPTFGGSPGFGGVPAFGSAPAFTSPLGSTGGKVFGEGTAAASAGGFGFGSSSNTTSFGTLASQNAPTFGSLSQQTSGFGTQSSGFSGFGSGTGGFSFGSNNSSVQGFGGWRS
cysteines in MDA-MB-231 and Ramos cells (Homo sapiens, UniProt Q9Y3D2), sequence (Q9Y3D2 21-182): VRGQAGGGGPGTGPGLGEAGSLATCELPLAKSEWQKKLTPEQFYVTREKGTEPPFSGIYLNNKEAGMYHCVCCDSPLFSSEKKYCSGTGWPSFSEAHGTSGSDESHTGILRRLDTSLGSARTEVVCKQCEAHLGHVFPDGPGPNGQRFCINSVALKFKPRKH
cysteines in MDA-MB-231 and Ramos cells (Homo sapiens, UniProt Q9Y6G9), sequence (Q9Y6G9 whole entry): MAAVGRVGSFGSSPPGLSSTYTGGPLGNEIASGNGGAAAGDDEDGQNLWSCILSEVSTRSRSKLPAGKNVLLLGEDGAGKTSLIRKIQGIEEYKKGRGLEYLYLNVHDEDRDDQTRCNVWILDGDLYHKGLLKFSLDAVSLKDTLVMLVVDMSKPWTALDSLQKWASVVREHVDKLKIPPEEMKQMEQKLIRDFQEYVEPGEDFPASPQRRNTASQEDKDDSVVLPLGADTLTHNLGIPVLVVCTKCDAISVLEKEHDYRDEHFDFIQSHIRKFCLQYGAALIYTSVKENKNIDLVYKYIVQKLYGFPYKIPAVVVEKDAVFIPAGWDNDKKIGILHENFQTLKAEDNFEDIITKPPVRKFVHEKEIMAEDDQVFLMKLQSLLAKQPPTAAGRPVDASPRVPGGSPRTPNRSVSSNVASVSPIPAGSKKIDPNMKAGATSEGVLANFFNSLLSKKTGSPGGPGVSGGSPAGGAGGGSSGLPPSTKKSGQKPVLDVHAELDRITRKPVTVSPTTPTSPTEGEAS
cysteines in MDA-MB-231 and Ramos cells (Homo sapiens, UniProt Q6XZF7), sequence (Q6XZF7 whole entry): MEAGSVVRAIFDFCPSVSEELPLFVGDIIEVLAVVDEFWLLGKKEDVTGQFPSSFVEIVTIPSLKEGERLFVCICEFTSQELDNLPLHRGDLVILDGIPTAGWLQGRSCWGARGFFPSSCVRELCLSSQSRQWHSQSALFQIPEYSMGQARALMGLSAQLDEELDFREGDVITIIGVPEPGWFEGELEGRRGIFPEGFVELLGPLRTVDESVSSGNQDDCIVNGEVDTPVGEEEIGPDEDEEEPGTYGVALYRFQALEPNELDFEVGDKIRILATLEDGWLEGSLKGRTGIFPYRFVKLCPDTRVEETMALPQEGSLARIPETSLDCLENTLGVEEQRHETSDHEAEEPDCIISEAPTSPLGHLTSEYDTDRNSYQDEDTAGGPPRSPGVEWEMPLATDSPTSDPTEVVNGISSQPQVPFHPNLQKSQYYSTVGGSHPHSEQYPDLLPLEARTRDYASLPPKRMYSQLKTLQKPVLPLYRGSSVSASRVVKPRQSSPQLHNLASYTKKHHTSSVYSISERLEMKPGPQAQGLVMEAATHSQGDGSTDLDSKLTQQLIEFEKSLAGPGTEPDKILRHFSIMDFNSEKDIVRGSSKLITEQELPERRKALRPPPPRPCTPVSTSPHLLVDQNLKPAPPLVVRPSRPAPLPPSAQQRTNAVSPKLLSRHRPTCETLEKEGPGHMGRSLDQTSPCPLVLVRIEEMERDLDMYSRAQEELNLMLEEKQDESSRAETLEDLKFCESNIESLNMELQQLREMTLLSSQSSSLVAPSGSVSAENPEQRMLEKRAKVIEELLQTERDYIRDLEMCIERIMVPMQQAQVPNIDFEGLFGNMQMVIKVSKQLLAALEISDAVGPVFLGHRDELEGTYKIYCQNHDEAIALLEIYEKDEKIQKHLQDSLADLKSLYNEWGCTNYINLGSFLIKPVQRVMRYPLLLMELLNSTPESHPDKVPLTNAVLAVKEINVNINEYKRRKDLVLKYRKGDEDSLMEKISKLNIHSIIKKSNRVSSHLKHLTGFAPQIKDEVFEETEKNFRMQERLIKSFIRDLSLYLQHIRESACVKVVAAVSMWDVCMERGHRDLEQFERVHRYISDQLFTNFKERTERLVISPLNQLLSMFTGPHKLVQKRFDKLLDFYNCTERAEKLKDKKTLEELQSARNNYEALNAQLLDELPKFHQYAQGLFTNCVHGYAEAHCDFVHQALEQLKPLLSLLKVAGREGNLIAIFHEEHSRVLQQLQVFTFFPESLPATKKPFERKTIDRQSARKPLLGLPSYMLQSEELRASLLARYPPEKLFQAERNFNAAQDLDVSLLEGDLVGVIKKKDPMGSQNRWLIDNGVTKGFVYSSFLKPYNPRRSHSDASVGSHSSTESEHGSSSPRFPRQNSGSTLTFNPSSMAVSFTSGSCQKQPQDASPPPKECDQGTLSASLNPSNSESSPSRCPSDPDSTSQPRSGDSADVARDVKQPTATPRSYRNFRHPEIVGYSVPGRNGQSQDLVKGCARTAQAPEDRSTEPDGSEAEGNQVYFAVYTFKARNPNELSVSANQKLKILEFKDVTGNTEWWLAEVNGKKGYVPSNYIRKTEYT

COc1ccc(C2CC(c3cccs3)=NN2C(=O)CCl)cc1 (centres unmarked) [compound 4] was tested, and the “isoTOP-ABPP reactivity P35658_C728 NUP214” value ([1]; 100 μM in situ 231) was 1.7, the “isoTOP-ABPP reactivity Q86YH6_C71 PDSS2” value ([2]; 100 μM in situ 231) was 20.0 and the “isoTOP-ABPP reactivity Q96F86_C413 EDC3” value ([3]; 100 μM in situ 231) was 20.0. The “isoTOP-ABPP reactivity Q9Y570_C381 PPME1” value ([4]; 100 μM in situ 231) was 1.1, the “isoTOP-ABPP reactivity Q9Y3D2_C105 MSRB2” value ([5]; 100 μM in situ 231) was 20.0 and the “isoTOP-ABPP reactivity P22061_C102 PCMT1” value ([6]; 100 μM in situ 231) was 2.8. The “isoTOP-ABPP reactivity Q8NBS9_C350 TXNDC5” value ([7]; 100 μM in situ 231) was 2.4, the “isoTOP-ABPP reactivity Q6XZF7_C691 DNMBP” value ([8]; 100 μM in situ 231) was 1.2 and the “isoTOP-ABPP reactivity P07858_C211 CTSB” value ([9]; 100 μM in situ 231) was 2.3. For the same compound, the “isoTOP-ABPP reactivity Q9Y6G9_C51 DYNC1LI1” value ([10]; 100 μM in situ 231) was 3.5.
COc1cc2c(cc1OC)CN(C(=O)CCl)CC2 [compound 8] was tested, and the “isoTOP-ABPP reactivity Q9Y3D2_C105 MSRB2” value ([5]; 200 μM, insitu, 231) was 20.0, the “isoTOP-ABPP reactivity P22061_C102 PCMT1” value ([6]; 200 μM, insitu, 231) was 4.5 and the “isoTOP-ABPP reactivity Q9Y6G9_C51 DYNC1LI1” value ([10]; 200 μM, insitu, 231) was 4.1.
For O=C(CCl)N1CCC(Cc2ccccc2)CC1 [compound 9], the “isoTOP-ABPP reactivity Q13630_C116 TSTA3” value [11] was 1.9, the “isoTOP-ABPP reactivity Q9Y570_C381 PPME1” value ([4]; 200 μM, insitu, 231) was 20.0 and the “isoTOP-ABPP reactivity P22061_C102 PCMT1” value ([6]; 200 μM, insitu, 231) was 1.2. For the same compound, the “isoTOP-ABPP reactivity Q8NBS9_C350 TXNDC5” value ([7]; 200 μM, insitu, 231) was 1.7, the “isoTOP-ABPP reactivity Q6XZF7_C691 DNMBP” value ([8]; 200 μM, insitu, 231) was 3.4 and the “isoTOP-ABPP reactivity P07858_C211 CTSB” value ([9]; 200 μM, insitu, 231) was 5.0.
In the case of Cn1cc(S(=O)(=O)N2CCOCC2)cc1C(=O)NC(=O)CCl [compound 11], the “isoTOP-ABPP ratio P35658_C728” value ([1]; 100 μM in situ 231) is reported as 0.8, the “isoTOP-ABPP ratio Q86YH6_C71” value ([2]; 100 μM in situ 231) is reported as 1.0 and the “isoTOP-ABPP ratio Q96F86_C413” value ([3]; 100 μM in situ 231) is reported as 20.0. The “isoTOP-ABPP ratio, cysteine Q9Y3D2_C105” value ([5]; 100 μM in situ 231) was 1.3, the “isoTOP-ABPP ratio P22061_C102” value ([6]; 100 μM in situ 231) was 0.8 and the “isoTOP-ABPP ratio Q8NBS9_C350” value ([7]; 100 μM in situ 231) was 3.4. The “isoTOP-ABPP ratio P07858_C211” value ([9]; 100 μM in situ 231) was 1.1.
In the case of O=C(CCl)NC(=O)NC12CC3CC(CC(C3)C1)C2 [compound 12], the “isoTOP-ABPP ratio Q86YH6_C71” value ([2]; 200 μM, insitu, 231) is reported as 20.0, the “isoTOP-ABPP ratio, cysteine Q9Y3D2_C105” value ([5]; 200 μM, insitu, 231) is reported as 20.0 and the “isoTOP-ABPP ratio P22061_C102” value ([6]; 200 μM, insitu, 231) is reported as 5.8. The “isoTOP-ABPP ratio Q8NBS9_C350” value ([7]; 200 μM, insitu, 231) was 9.4 and the “isoTOP-ABPP ratio Q9Y6G9_C51” value ([10]; 200 μM, insitu, 231) was 6.5.
O=C(CCl)NC12CC3CC(CC(C3)C1)C2 [compound 21] was tested, and the “isoTOP-ABPP ratio P35658_C728” value ([1]; 200 μM, insitu, 231) was 1.3, the “isoTOP-ABPP ratio Q86YH6_C71” value ([2]; 200 μM, insitu, 231) was 2.1 and the “isoTOP-ABPP ratio, cysteine Q13630_C116” value [11] was 0.8. For the same compound, the “isoTOP-ABPP ratio Q96F86_C413” value ([3]; 200 μM, insitu, 231) was 0.8, the “isoTOP-ABPP ratio, cysteine Q6XZF7_C691” value ([8]; 200 μM, insitu, 231) was 0.8 and the “isoTOP-ABPP ratio P07858_C211” value ([9]; 200 μM, insitu, 231) was 2.6. For the same compound, the “isoTOP-ABPP ratio Q9Y6G9_C51” value ([10]; 200 μM, insitu, 231) was 0.6.
COc1ccccc1OCCNC(=O)CCl [compound 28] was tested, and the “isoTOP-ABPP ratio Q8NBS9_C350” value ([7]; 200 μM, insitu, 231) was 1.1 and the “isoTOP-ABPP ratio Q9Y6G9_C51” value ([10]; 200 μM, insitu, 231) was 0.7.
In the case of Cc1ccc(C=C(C#N)C(=O)NCCN2CCOCC2)cc1 [compound 41], the “isoTOP-ABPP ratio P35658_C728” value ([1]; 200 μM, insitu, 231) is reported as 1.1, the “isoTOP-ABPP ratio Q86YH6_C71” value ([2]; 200 μM, insitu, 231) is reported as 0.9 and the “isoTOP-ABPP ratio Q9Y570_C381” value ([4]; 200 μM, insitu, 231) is reported as 0.2. For the same compound, the “isoTOP-ABPP ratio Q9Y3D2_C105” value ([5]; 200 μM, insitu, 231) was 1.2, the “isoTOP-ABPP ratio P22061_” value ([6]; 200 μM, insitu, 231) was 0.7 and the “isoTOP-ABPP ratio Q8NBS9_C350” value ([7]; 200 μM, insitu, 231) was 0.9. For the same compound, the “isoTOP-ABPP ratio P07858_C211” value ([9]; 200 μM, insitu, 231) was 0.4 and the “isoTOP-ABPP ratio Q9Y6G9_C51” value ([10]; 200 μM, insitu, 231) was 0.7.
For CC1CCc2ccccc2N1C(=O)CCl (centres unmarked) [compound 45], the “isoTOP-ABPP ratio P35658_C728” value ([1]; 200 μM, insitu, 231) was 3.1, the “isoTOP-ABPP ratio Q86YH6_C71” value ([2]; 200 μM, insitu, 231) was 20.0 and the “isoTOP-ABPP ratio Q13630_C116” value [11] was 20.0. For the same compound, the “isoTOP-ABPP ratio Q96F86_C413” value ([3]; 200 μM, insitu, 231) was 20.0, the “isoTOP-ABPP ratio Q9Y3D2_C105” value ([5]; 200 μM, insitu, 231) was 20.0 and the “isoTOP-ABPP ratio Q8NBS9_C350” value ([7]; 200 μM, insitu, 231) was 2.1. For the same compound, the “isoTOP-ABPP ratio P07858_C211” value ([9]; 200 μM, insitu, 231) was 2.4.
With O=C(CCl)Nc1cccc2ncccc12 [compound 51] the “isoTOP-ABPP ratio Q96F86_C413” value ([3]; 200 μM, insitu, 231) was 20.0.
